According to patent US11779659B2, “RNA constructs and uses thereof” (priority 2020, dated 2023):

How the values were obtained:
[1] = LNP formulation screening: physical characteristics; type: physicochemical; conditions: LNP with surrogate RNA coding for luciferase
Protocol: (§1) An exemplary LNP delivery system was developed to effectively and safely deliver therapeutic nucleic acids into the cytosol of various cell types after local administration in vivo. The early formulation work was performed with several promising LNP formulations and surrogate RNA coding for luciferase. The aim of the experiments was to correlate the effect of different ionizable cationic lipids on the efficacy of RNA delivery by LNPs in vivo. Formulations were compared in terms of RNA encapsulation efficiency, apparent pKa, LNP size and polydispersity.

liver = test: in vivo screening of LNP with luciferase (Luc) RNA, intravenous administration
Protocol: as §1
Based on this the ALC-0315/DSPC/CHOL/ALC-0159 prototype was submitted for in vivo screening. The results presented in FIG. 16 summarize the in vivo testing of two independent pilot batches using luciferase (Luc) RNA.
The formulation screening procedure described above involves intravenous administration resulting in delivery primarily to the liver. The mechanism of LNP uptake into hepatocytes is driven by binding of endogenous apolipoproteins to the LNP followed by receptor-mediated endocytosis e.g. through low density lipoprotein receptors. […] Luc expression was monitored at 4, 24, 72 and 96 hours post administration (FIG. 17).

SMILES: CCCCCCCCC(CCCCCC)C(=O)OCCCCCCN(CCCCO)CCCCCCOC(=O)C(CCCCCC)CCCCCCCC (centres unmarked) [ALC-0315, ((4-hydroxybutyl)azanediyl)bis(hexane-6,1-diyl)bis(2-hexyldecanoate)]
- physical characteristics regarding particle size, homogeneity, and RNA encapsulation efficiency [1]: suitable
- potency as cationic lipid (liver): highly potent
